The target in this assay is T1, recombinant human KHKC (Homo sapiens, UniProt P50053).
T1 construct: Profinity eXact fusion tag (N, cleaved yes); made in house; host or cells: E. coli BL21 (DE3), vector pPAL8; cDNA from Hep G2 cells
T1 sequence (P50053 1-298): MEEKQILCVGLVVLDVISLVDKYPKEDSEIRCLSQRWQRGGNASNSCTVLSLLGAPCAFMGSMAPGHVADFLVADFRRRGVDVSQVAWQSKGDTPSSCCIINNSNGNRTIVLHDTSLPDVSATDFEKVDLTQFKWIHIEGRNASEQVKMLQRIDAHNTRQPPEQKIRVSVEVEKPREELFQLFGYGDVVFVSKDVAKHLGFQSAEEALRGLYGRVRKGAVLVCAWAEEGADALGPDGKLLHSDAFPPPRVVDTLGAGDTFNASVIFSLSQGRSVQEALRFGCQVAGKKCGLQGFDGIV
Nature of the assay: High throughput cell-free recombinant KHKC enzymatic assay (3-step reaction, decrease in NADH at A340nm). It is filed as biochemical. Conditions: for inhibition at 50 µM: read-out: KHKC Inhibition (%). The procedure:
Botanical extracts and phytochemicals were screened for their inhibitory activity using a high throughput cell-free enzymatic assay that utilized recombinant KHKC. KHKC activity was assayed with a 3-step reaction (Fig 2). The Synergy 2 multi-mode microplate reader was used to measure the decrease in NADH at A340nm (BioTek Instruments, Inc., Winooski, VT). For screening of the botanical extracts and phytochemicals, the KHKC enzymatic assay was carried out at 37°C in a total reaction volume of 200 ul containing 50 mM PIPES, 6 mM MgCl2, 100 mM KCl, 5 mM ATP, 2 mM phosphoenolpyruvate, 0.3 mM NADH, 15 U of pyruvate kinase, 15 U of lactate dehydrogenase, and 75 ng KHKC. The botanical extracts (50 μg/mL) and phytochemicals (50 μM) were preincubated in the reaction mixture for 15 min at 37°C. Afterwards, 1 mM fructose was added to the reactions, except for the no fructose controls, and A340nm data were collected every minute for 1 hr. The changes in absorbance were calculated for all samples based on the linear phase of the reactions and adjusted for the no fructose controls. Compared to the fructose only controls (1 mM fructose, no inhibitors), percentage inhibition of KHKC for each sample was calculated. […] For phytochemicals that inhibited KHKC by at least 40%, dose responses were conducted from 0.05 to 100 μM. IC50s against KHKC were calculated. 4-(hydroxymercuri) benzoic acid sodium salt was used as a positive inhibitory control of KHKC [36]. All chemicals were purchased from Sigma-Aldrich (St. Louis, MO).
Recombinant human KHKC proteins: Recombinant human KHKC was produced using the Profinity eXact fusion-tag system (Bio-Rad Laboratories, Hercules, CA). RNA were isolated from Hep G2 cells. CDNA was generated using 1 μg of RNA (iScript cDNA synthesis kit, Bio-Rad Laboratories). The coding sequences of KHKC were amplified using iProof high-fidelity DNA polymerase (Bio-Rad Laboratories). The following primers were used: forward primer = 5’…[…]…3’ and reverse primer = 5’…[…]…3’. The amplicons were ligated into pPAL8, a bacterial expression vector. Sequencing, performed by Beckman Coulter Genomics (Danvers, MA), confirmed that the coding sequences of the KHKC clones were a match to the National Center for Biotechnology Information’s reference sequence. The clones were transformed into BL21 (DE3) chemi-competent expression cells (Bio-Rad Laboratories). E. coli cultures were grown at 37°C in terrific broth media containing 100 μg/mL ampicillin. When the cell density (OD600) reached 0.5–0.7, the expression of KHKC was induced by adding 1 mM isopropyl β-D-1-thiogalactopyranoside. After 3–4 hr incubation, the growth culture was centrifuged at 5,000 g for 10 min at 4°C and the pellet was stored at -80°C.
For protein purification, the bacterial cell pellet was lysed using B-PER in phosphate buffer (Thermo Fisher Scientific Inc., Rockford, IL) containing AEBSF protease inhibitor (EMD Chemicals, Gibbstown, NJ). The lysate was centrifuged at 30,000 x g for 30 min at 4°C to remove cell debris. The supernatant was filtered using a […] syringe filter and then loaded (2.5 mL/min) onto the Bio-Scale Mini Profinity eXact cartridges using the Profinia protein purification instrument (Bio-Rad Laboratories). The column was first washed with 100 mL sodium phosphate, pH 7.0 (10 ml/min, CV = 10) followed by 400 mL sodium phosphate, pH 7.0 (10 ml/min, CV = 15). The protein was eluted with 100 mM sodium phosphate and 100 mM sodium fluoride, pH 7.2 and incubated for 4 hr at 4°C. The tag-less protein was stored in 20% glycerol and frozen at -80°C until use.
GraphPad Prism 5.03 (GraphPad Software, La Jolla, CA) was utilized for the data and statistical analyses. To generate a best fit, an upper concentration (10,000 μg/mL at 100% inhibition) and a lower concentration (0.001 μg/mL at 0% inhibition) were added in order to calculate the IC50s for the inhibition of KHKC and for the inhibition of fructose-induced ATP depletion. […]

Where [1] appears, read: phytochemical library screen, 50 μM, 1 mM fructose.
Setting [2] is: phytochemicals, dose response 0.05 to 100 μM, read-out: KHKC IC50.

pIC50: −log10 of the molar value. Read-outs that look alike come from different tables or passages of the source.

This is an account of results in PMC4913896, “Bioactivity-Guided Identification of Botanical Inhibitors of Ketohexokinase” (PLoS ONE, 2016).

With “3,4',5,7-THMethoxy3'-O-B-D-Xylopyranoside”, under setting [1], the “KHKC Inhibition (%)” value was 63.3%. The negative-log IC50 (pIC50) under setting [2] was 5.46.
On to `COc1cc(OC)c2ccc(=O)oc2c1CC=C(C)C` [5,7-Dimethoxy-8-prenylcoumarin], for which the inhibition at 50 µM under setting [1] is 70.4%. Besides, the pIC50 under setting [2] is 4.99.
In the case of `O=C(O)[C@H]1O[C@@H](Oc2cc(O)c3c(=O)cc(-c4ccc(O)cc4)oc3c2)[C@H](O)[C@@H](O)[C@@H]1O` [Apigenin 7-glucuronide], the “KHKC Inhibition (%)” value under setting [1] was 53.1%. In addition, under setting [2], the pIC50 is 4.79.
As for `O=c1cc(-c2ccc(O)cc2)oc2cc(O[C@@H]3O[C@H](CO)[C@@H](O)[C@H](O)[C@H]3O[C@@H]3OC[C@](O)(CO)[C@H]3O)cc(O)c12` [Apiin], the inhibition at 50 µM under setting [1] came out at 47%. Besides, the pIC50 under setting [2] was 4.67.
Turning to `COc1c(O)cc2c(=O)c3c(O)cc(O)c(CC=C(C)C)c3oc2c1CC=C(C)C` [Cratoxyarborenone E], the inhibition at 50 µM under setting [1] turned out to be 61.7%. Further, the pIC50 under setting [2] is 6.00.
On to `CC(C)=CCc1c(O)ccc(C(=O)/C=C/c2ccc(O)cc2)c1O` [Isobavachalcone], for which, under setting [1], the inhibition at 50 µM turned out to be 44.2%. Also, the negative-log IC50 (pIC50) under setting [2] was 5.24.
For the compound `CC(C)=CCc1c(-c2ccc(O)cc2O)oc2c(CC=C(C)C)c(O)cc(O)c2c1=O` [Mulberrin], the “KHKC Inhibition (%)” value under setting [1] was determined as 61.2%. Also, the pIC50 under setting [2] is 4.51.
With `COc1c(O)cc2oc(-c3ccccc3)cc(=O)c2c1O` [Oroxylin A], under setting [1], the inhibition at 50 µM was found to be 42.1%. The negative logarithm of the IC50 (pIC50) under setting [2] is 5.09.
Consider `CC(C)=CCc1c(O)ccc2ccc(=O)oc12` [Osthenol], for which the negative logarithm of the IC50 (pIC50) was 5.11 and the inhibition at 50 µM is 74.1%.
In the case of `COc1ccc2ccc(=O)oc2c1CC=C(C)C` [Osthole], the inhibition at 50 µM under setting [1] came to 93.4%. Further, the pIC50 under setting [2] is 6.15.
As to Flavaspidic acid AB, the “KHKC Inhibition (%)” value under setting [1] is recorded as 48.7%. Under setting [2], the negative logarithm of the IC50 (pIC50) was 4.53.
Regarding Methoxy isobavachalcone, the “KHKC Inhibition (%)” value under setting [1] turned out to be 70.8%. The pIC50 under setting [2] is 6.70.
As for Swietenocoumarin B, the “KHKC Inhibition (%)” value under setting [1] came out at 62.5%. Moreover, the pIC50 under setting [2] was 4.23.
In the case of α-/γ-Mangostin, under setting [1], the “KHKC Inhibition (%)” value was found to be 90.4%. In addition, the negative logarithm of the IC50 (pIC50) under setting [2] was 5.82.
